Laboratory results: patent publication US20080176885A1, “Novel synergistic opioid-cannabinoid codrug for pain management” (University of Kentucky, priority 2006, published 2008)
“And” between values parts separate entries of the source, which are not always exact repeats. Identical values can stand only once.

Test system: thermally-induced nociception in rats
Assay: Tail-flick test (thermally-induced nociception) in rats
Type: in vivo, rat (male Sprague-Dawley)
Details: i.p., rat, cut off 10 seconds
Description: The purpose of the study was to determine the analgesic effect of tetrahydrocannabinol (Δ-9 THC) alone, Morphine Alone and Δ-9 THC in combination with Morphine on thermal-induced pain was determined. […] The dose response curve for the tail flick test and the analgesic effects of various doses of Morphine alone, Δ-9 THC alone as well as various doses of Δ-9 THC combined with various doses of morphine was determined by comparing pre-injection baseline values to post-injection values.
The tail-flick test was performed according to the following procedure:
Male Sprague-Dawley rats all with an approximate age of 85 to 90 days were each weighed prior to being subjected to any tests, on the day of the experiment. Each rat was only used for one day of experiments, and given only one dose, or dose combination. • 1. Prior to tail-flick test, rats are habituated for three days to handling and the tail flick procedure, without heat exposure. • 2. On the day of the experiment, warm up the tail-flick apparatus (IITC Model 33, Life Science, Woodland Hills, Calif.) for at least 30 minutes. • 3. Adjust the intensity of the lamp so that baseline tail-flick latency for rats is equal to approximately 2.0 seconds. […] Place rat in a mitten and blacken tail with ink approximately 2 inches in length at 1 inch from the tip of the tail. • 6. Place the tail flatly in the groove of the tail-flick apparatus. • 7. Push start to begin heat exposure. The lamp will turn off automatically when the tail flicks from the heat source. • 8. For each rat, a baseline score is determined prior to injection. TFL (tail flick latency) is measured twice in an approximate 15 minute intervals and an average of the two times determines the baseline. • 9. Once the baseline value is determined, TFL is measured, following the injection of drugs, at times 15, 30, 60 and 120 minutes.
All solutions were made on the day of the experiment. Not all of the solutions described below were used in every experiment. The drug combinations vary for each experiment. Each particular combination for an experiment is reported in the corresponding table below.
Each animal is given an injection of morphine that is 1 ml/kg body weight, and an injection of THC or control that is varies by dose and the injection volume is calculated as set forth above.

[1] = Example 10, dose Z: 2 mg/kg morphine 30 minutes after vehicle

## CN1CC[C@]23c4c5ccc(O)c4O[C@H]2[C@@H](O)C=C[C@H]3[C@H]1C5 [Morphine]
Example 7, dose Z: vehicle and 2 mg/kg morphine, 15 min
  Tail Flick Latency (TFL, seconds) 15 min: 3.08 s and 3.12 s and 2.28 s
Example 7, dose Z: vehicle and 2 mg/kg morphine
  Tail Flick Latency (TFL, seconds) 30 min: 2.96 s and 2.83 s and 4.73 s
Example 7, dose Z: vehicle and 2 mg/kg morphine, 60 min
  Tail Flick Latency (TFL, seconds) 60 min: 2.22 s and 3.69 s and 3.85 s
Example 9, dose Z: 2 mg/kg Morphine and vehicle
  Tail Flick Latency (TFL, seconds) 30 min: 4.22 s and 4.99 s and 3.00 s
Example 9, dose Z: 2 mg/kg Morphine and vehicle, 60 min
  Tail Flick Latency (TFL, seconds) 60 min: 2.91 s and 5.25 s and 3.97 s
Example 9, dose Z: 2 mg/kg Morphine and vehicle, 120 min
  Tail Flick Latency (TFL, seconds) 120 min: 2.68 s and 4.83 s and 2.67 s
Example 10, dose Z: 2 mg/kg morphine 30 minutes after vehicle, 15 min
  Tail Flick Latency (TFL, seconds) 15 min: 2.41 s and 2.99 s and 3.89 s and 2.36 s and 2.97 s and 3.02 s
[1]
  Tail Flick Latency (TFL, seconds) 30 min: 2.90 s and 3.58 s and 4.86 s and 4.07 s and 4.39 s and 3.90 s
  Tail Flick Latency (TFL, seconds) 180 min: 2.15 s and 2.64 s and 2.59 s and 2.18 s and 2.56 s and 2.67 s
Example 10, dose Z: 2 mg/kg morphine 30 minutes after vehicle, 60 min
  Tail Flick Latency (TFL, seconds) 60 min: 3.26 s and 3.14 s and 3.96 s and 3.86 s and 3.99 s and 4.01 s
Example 10, dose Z: 2 mg/kg morphine 30 minutes after vehicle, 120 min
  Tail Flick Latency (TFL, seconds) 120 min: 2.68 s and 2.94 s and 3.18 s and 3.06 s and 3.23 s
Dose B: 3 mg/kg morphine and vehicle, 15 min post-injection
  Tail Flick Latency (TFL, seconds) 15 min: 2.38 s and 2.19 s and 2.74 s
Dose B: 3 mg/kg morphine and vehicle, 60 min post-injection
  Tail Flick Latency (TFL, seconds) 60 min: 5.36 s and 4.63 s and 4.80 s
Dose B: 3 mg/kg morphine and vehicle, 120 min post-injection
  Tail Flick Latency (TFL, seconds) 120 min: 4.02 s and 4.55 s and 3.99 s

## CCCCCc1cc(O)c2c(c1)OC(C)(C)[C@@H]1CCC(C)=C[C@@H]21 [Δ-9 THC, delta-9-tetrahydrocannabinol]
Example 6, dose X: saline and 2 mg/kg Δ-9 THC, 15 min
  Tail Flick Latency (TFL, seconds) 15 min: 2.33 s and 1.77 s and 2.10 s
Example 8, dose X: saline and 2 mg/kg Δ-9 THC, 15 min
  Tail Flick Latency (TFL, seconds) 15 min: 2.57 s and 1.88 s and 3.65 s
Dose C: saline and 8 mg/kg Δ-9 THC
  Tail Flick Latency (TFL, seconds) 180 min: 10.0 s
Dose C: saline and 8 mg/kg Δ-9 THC, 240 min
  Tail Flick Latency (TFL, seconds) 240 min: 9.21 s and 8.98 s and 7.28 s
Dose E: saline and 1 mg/kg Δ-9 THC, 15 min
  Tail Flick Latency (TFL, seconds) 15 min: 2.12 s and 2.03 s
Dose E: saline and 1 mg/kg Δ-9 THC
  Tail Flick Latency (TFL, seconds) 30 min: 2.56 s and 2.15 s
Dose E: saline and 1 mg/kg Δ-9 THC, 60 min
  Tail Flick Latency (TFL, seconds) 60 min: 3.98 s and 5.07 s
Dose E: saline and 1 mg/kg Δ-9 THC, 120 min
  Tail Flick Latency (TFL, seconds) 120 min: 4.20 s and 3.09 s
Dose G: saline and 4 mg/kg Δ-9 THC
  Tail Flick Latency (TFL, seconds) 30 min: 5.07 s and 5.89 s and 5.10 s
Dose G: saline and 4 mg/kg Δ-9 THC, 60 min
  Tail Flick Latency (TFL, seconds) 60 min: 6.24 s and 8.76 s and 6.48 s
